Results published in PubChem BioAssay AID248 (DTP/NCI, 2004).
Inconclusive results and toxic doses are left out. Rule as the data show it: active = T/C of 150% or more; inactive = T/C below 125%.

Test system: L1210 leukemia ip in BDF1 mice, survival T/C
Assay: NCI In Vivo Anticancer Drug Screen. Data for tumor model L1210 Leukemia (intraperitoneal) in B6D2F1 (BDF1) mice
Conditions: endpoint: mean survival time, higher = longer survival
Outline: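 Each compound was tested against a transplantable tumor grown in mice. The endpoint was survival, with treated animals benchmarked against vehicle controls as a simple ratio.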

[1] = dose: 25.0 mg/kg/injection, schedule: Q01DX001 (ip), vehicle: saline
[2] = dose: 100.0 mg/kg/injection, schedule: Q04DX003 (ip), vehicle: saline with Tween-80
[3] = dose: 100.0 mg/kg/injection, schedule: Q01DX001 (ip), vehicle: saline with Tween-80
[4] = dose: 100.0 mg/kg/injection, schedule: Q01DX001 (ip), vehicle: saline
[5] = dose: 100.0 mg/kg/injection, schedule: Q04DX002 (ip), vehicle: Klucel (hydroxypropylcellulose) (HPC)
[6] = dose: 200.0 mg/kg/injection, schedule: Q01DX001 (ip), vehicle: saline
[7] = dose: 400.0 mg/kg/injection, schedule: Q01DX001 (ip), vehicle: saline
[8] = dose: 200.0 mg/kg/injection, schedule: Q04DX003 (ip), vehicle: saline with Tween-80
[9] = dose: 400.0 mg/kg/injection, schedule: Q04DX003 (ip), vehicle: saline with Tween-80

Measured: T/C

NC(N)=N/N=C/C(F)(F)F
inactive: dose: 15.0 mg/kg/injection, schedule: Q01DX Z (ip), vehicle: methylcellulose (MC) 105 % of control | dose: 30.0 mg/kg/injection, schedule: Q01DX Z (ip), vehicle: methylcellulose (MC) 102 % of control | dose: 60.0 mg/kg/injection, schedule: Q01DX Z (ip), vehicle: methylcellulose (MC) 112 % of control | dose: 60.0 mg/kg/injection, schedule: Q01DX Z (oral), vehicle: methylcellulose (MC) 92 % of control | dose: 120.0 mg/kg/injection, schedule: Q01DX Z (ip), vehicle: methylcellulose (MC) 97 % of control | dose: 120.0 mg/kg/injection, schedule: Q01DX Z (oral), vehicle: methylcellulose (MC) 93 % of control | dose: 240.0 mg/kg/injection, schedule: Q01DX Z (ip), vehicle: methylcellulose (MC) 88 % of control | dose: 240.0 mg/kg/injection, schedule: Q01DX Z (oral), vehicle: methylcellulose (MC) 102 % of control | dose: 420.0 mg/kg/injection, schedule: Q01DX Z (ip), vehicle: methylcellulose (MC) 88 % of control | dose: 480.0 mg/kg/injection, schedule: Q01DX Z (oral), vehicle: methylcellulose (MC) 95 % of control

CN(C)CCC(O)c1ccc(Cl)cc1 (configuration not stated)
inactive: dose: 100.0 mg/kg/injection, schedule: Q04DX003 (ip), vehicle: saline 102 % of control | dose: 200.0 mg/kg/injection, schedule: Q04DX003 (ip), vehicle: saline 98 % of control

O=[As](O)(O[As](=O)(O)c1ccccc1)c1ccccc1
inactive: dose: 5.0 mg/kg/injection, schedule: Q01DX001 (ip), vehicle: saline 103 % of control | dose: 10.0 mg/kg/injection, schedule: Q01DX001 (ip), vehicle: saline 103 % of control | dose: 20.0 mg/kg/injection, schedule: Q01DX001 (ip), vehicle: saline 103 % of control | dose: 40.0 mg/kg/injection, schedule: Q01DX001 (ip), vehicle: saline 101 % of control

O=S(=O)(C1=C(c2ccccc2)CCCC1)c1ccccc1
inactive: dose: 100.0 mg/kg/injection, schedule: Q01DX009 (ip), vehicle: acetone 104 % of control

N#CSc1nc2ccccc2s1
inactive: dose: 6.0 mg/kg/injection, schedule: Q01DX001 (ip), vehicle: saline 88 % of control | dose: 12.0 mg/kg/injection, schedule: Q01DX001 (ip), vehicle: saline 89 % of control | [1] 98 % of control | dose: 25.0 mg/kg/injection, schedule: Q04DX003 (ip), vehicle: saline with Tween-80 92 % of control | dose: 50.0 mg/kg/injection, schedule: Q04DX003 (ip), vehicle: saline with Tween-80 91 % of control | [2] 96 % of control

CSc1ccc(C(=O)Nc2c(N)ncnc2N)cc1
inactive: [1] 97 % of control | dose: 50.0 mg/kg/injection, schedule: Q01DX001 (ip), vehicle: saline 87 % of control | [3] 100 % of control | [4] 88 % of control

COc1ccc(C(N)=S)c2ccccc12
inactive: dose: 100.0 mg/kg/injection, schedule: Q01DX001 (ip), vehicle: Klucel (hydroxypropylcellulose) (HPC) 105 % of control | dose: 200.0 mg/kg/injection, schedule: Q01DX001 (ip), vehicle: Klucel (hydroxypropylcellulose) (HPC) 102 % of control | dose: 400.0 mg/kg/injection, schedule: Q01DX001 (ip), vehicle: Klucel (hydroxypropylcellulose) (HPC) 102 % of control

O=C(O)c1ccc(F)cc1F
inactive: [5] 121 % of control | dose: 200.0 mg/kg/injection, schedule: Q04DX002 (ip), vehicle: Klucel (hydroxypropylcellulose) (HPC) 105 % of control | dose: 400.0 mg/kg/injection, schedule: Q04DX002 (ip), vehicle: Klucel (hydroxypropylcellulose) (HPC) 98 % of control

ON=C(c1ccccn1)c1ccccn1
inactive: dose: 100.0 mg/kg/injection, schedule: Q01DX009 (ip), vehicle: gum acacia 93 % of control | dose: 100.0 mg/kg/injection, schedule: Q04DX003 (ip), vehicle: Klucel (hydroxypropylcellulose) (HPC) 97 % of control | dose: 200.0 mg/kg/injection, schedule: Q01DX009 (ip), vehicle: gum acacia 88 % of control | dose: 200.0 mg/kg/injection, schedule: Q04DX003 (ip), vehicle: Klucel (hydroxypropylcellulose) (HPC) 93 % of control | dose: 400.0 mg/kg/injection, schedule: Q01DX009 (ip), vehicle: gum acacia 98 % of control | dose: 400.0 mg/kg/injection, schedule: Q04DX003 (ip), vehicle: Klucel (hydroxypropylcellulose) (HPC) 95 % of control

CC12CCC(C1)C(C)(C)C2[N+]#N (configuration not stated)
inactive: dose: 75.0 mg/kg/injection, schedule: Q01DX001 (ip), vehicle: saline 105 % of control

CC(C)OC(=O)C(C)(OC(=O)c1ccccc1)c1ccccc1 (configuration not stated)
inactive: [4] 94 % of control | [6] 91 % of control | [7] 88 % of control

CN(C)/C=N\N(c1ccccc1)c1ccccc1
inactive: dose: 100.0 mg/kg/injection, schedule: Q04DX002 (ip), vehicle: saline with Tween-80 106 % of control | dose: 200.0 mg/kg/injection, schedule: Q04DX002 (ip), vehicle: saline with Tween-80 98 % of control

COc1cc(Br)c(C(C)CC(=O)O)cc1OC (configuration not stated)
inactive: [2] 103 % of control | [8] 98 % of control | [9] 92 % of control

CCC(O)C(CCN(C)C)(CN(C)C)c1ccccc1 (configuration not stated)
inactive: dose: 75.0 mg/kg/injection, schedule: Q01DX001 (ip), vehicle: carboxymethylcellulose (CMC) 94 % of control | dose: 150.0 mg/kg/injection, schedule: Q01DX001 (ip), vehicle: carboxymethylcellulose (CMC) 102 % of control

CC(CCc1ccc2sc3ccccc3c2c1)C(N)=O (configuration not stated)
inactive: [4] 94 % of control | [6] 92 % of control | [7] 94 % of control

Cc1cncc(=O)[nH]1
inactive: [3] 98 % of control | dose: 100.0 mg/kg/injection, schedule: Q01DX009 (ip), vehicle: saline with Tween-80 96 % of control | [2] 104 % of control | dose: 200.0 mg/kg/injection, schedule: Q01DX001 (ip), vehicle: saline with Tween-80 98 % of control | dose: 200.0 mg/kg/injection, schedule: Q01DX009 (ip), vehicle: saline with Tween-80 100 % of control | [8] 111 % of control | dose: 400.0 mg/kg/injection, schedule: Q01DX001 (ip), vehicle: saline with Tween-80 102 % of control | dose: 400.0 mg/kg/injection, schedule: Q01DX009 (ip), vehicle: saline with Tween-80 91 % of control | [9] 98 % of control

ClCCN(CCCl)c1ccc(CNCCCNCc2ccc(N(CCCl)CCCl)cc2Cl)c(Cl)c1
inactive: dose: 50.0 mg/kg/injection, schedule: Q01DX001 (ip), vehicle: carboxymethylcellulose (CMC) 93 % of control

NC(CCl)=NCC1CCCCCC1
inactive: dose: 25.0 mg/kg/injection, schedule: Q04DX002 (ip), vehicle: Klucel (hydroxypropylcellulose) (HPC) 107 % of control | dose: 50.0 mg/kg/injection, schedule: Q04DX002 (ip), vehicle: Klucel (hydroxypropylcellulose) (HPC) 100 % of control | [5] 101 % of control

Cc1ncc(CO)c(C2NOCc3nscc32)c1O (configuration not stated)
inactive: dose: 3.12 mg/kg/injection, schedule: Q01DX009 (ip), vehicle: Klucel (hydroxypropylcellulose) (HPC) 94 % of control | dose: 3.12 mg/kg/injection, schedule: Q01DX009 (ip), vehicle: other 98 % of control | dose: 6.25 mg/kg/injection, schedule: Q01DX009 (ip), vehicle: other 100 % of control | dose: 12.5 mg/kg/injection, schedule: Q01DX009 (ip), vehicle: Klucel (hydroxypropylcellulose) (HPC) 89 % of control | dose: 12.5 mg/kg/injection, schedule: Q01DX009 (ip), vehicle: other 107 % of control | dose: 12.5 mg/kg/injection, schedule: Q04DX003 (ip), vehicle: Klucel (hydroxypropylcellulose) (HPC) 92 % of control

CCP(C)(=S)CC
inactive: dose: 100.0 mg/kg/injection, schedule: Q01DX009 (ip), vehicle: Klucel (hydroxypropylcellulose) (HPC) 101 % of control | dose: 200.0 mg/kg/injection, schedule: Q01DX009 (ip), vehicle: Klucel (hydroxypropylcellulose) (HPC) 100 % of control | dose: 400.0 mg/kg/injection, schedule: Q01DX009 (ip), vehicle: Klucel (hydroxypropylcellulose) (HPC) 100 % of control

C/C(=N/N=C(N)N)C(F)(F)F
inactive: dose: 15.0 mg/kg/injection, schedule: Q01DX Z (ip), vehicle: saline 104 % of control | dose: 15.0 mg/kg/injection, schedule: Q01DX Z (oral), vehicle: saline 108 % of control | dose: 30.0 mg/kg/injection, schedule: Q01DX Z (ip), vehicle: saline 87 % of control | dose: 30.0 mg/kg/injection, schedule: Q01DX Z (oral), vehicle: saline 106 % of control

O=C(Nc1ccc(S(=O)(=O)NC2CCCCC2)cc1)OC1CCCCCC1
inactive: [4] 94 % of control | [6] 94 % of control | [7] 88 % of control
